In patent publication US20220289788A1, “3-HYDROXY-5-PREGNANE-20-ONE DERIVATIVE AND USE THEREOF” (priority 2019, published 2022):
Where a name gives a salt, the structure may show the parent alone.

Experiments:
[1] = cited from earlier work
[2] = Pharmacokinetic testing after single oral administration, allopregnanolone detected in plasma; format: in vivo; settings: male SD rats, i.g. 20 mg/kg (as allopregnanolone)
Description: The object of this experiment is to study the single oral administration of each compound solution of the present invention, and an allopregnanolone solution, to detect allopregnanolone, an active ingredient in plasma, and to evaluate its pharmacokinetic (PK) properties in SD rats. The solution was to dissolve each compound in an aqueous solution containing 5% Tween 20.
The male SD rats used in this embodiment, weighing 180-220 g, were purchased from Shanghai SLAC Laboratory Animal Co., Ltd. All animals were fasted overnight, until 4 hours after administration.
The experimental SD rats were grouped by randomized block design, and 5 rats in each group, namely allopregnanolone group, compound 1 hydrochloride group, compound 2 hydrochloride group, compound 14 hydrochloride group, and compound 15 hydrochloride group. Each group was administered by irrigation (i.g.) at a dose of 20 mg/kg (as measured by allopregnanolone).
0.0833 h, 0.25 h, 0.5 h, 1 h, 2 h, 3 h, 4 h, 6 h, 9 h, 12 h, 24 h after the administration, about 0.6 mL of blood sample was collected from peripheral veins and transferred to a commercial centrifuge tube containing 0.85 to 1.15 mg of K2 EDTA anticoagulant (Jiangsu Kangjian Medical Products Co., Ltd.). Within 30 minutes after blood collection, plasma was centrifuged (centrifugation at 3,000 g for 10 minutes at approximately 4° C.). The plasma was placed in a labeled polypropylene tube, quick-frozen in dry ice, then stored in an ultra-low temperature freezer at −60° C. or lower for testing. LC-MS/MS bioassay was used to detect the concentration of drug in SD rat plasma. Blood concentration-time data was analyzed using a non-compartment model and a WinNonlin software package (version6.3 or later), as shown in Table-3.

[3] = Stability of compound in 5% glucose solution (HPLC purity over time); format: physicochemical; settings: about 1 mg/g, room temperature
Experimental: An appropriate amount of the derivative of the present invention was weighed respectively, dissolved in a 5% glucose solution and prepared into a solution with a concentration of about 1 mg/g.
(1) Blank solution: Methanol.
(2) Sample solution: A suitable solution was taken and filtered through a 0.22 μm filter membrane.

[4] = physchem; settings: 25 °C, thermodynamic from solid
Experimental: An appropriate amount of the compound of the present invention was weighed, prepared into solutions with different media, respectively, stirred in a constant temperature water bath magnetometer at 25° C. for about 24 hours, and filtered through a 0.22 μm water filter membrane. An appropriate amount of filtrate was diluted to a certain concentration with methanol, and used as a test solution. The concentration of the test solution was determined by HPLC with a UV detector using methanol as a blank control solution.
(2) Reference solution: 5 mg of reference substance was weighed precisely, placed in a 10 mL measuring flask, dissolved with methanol and diluted to scale, and mixed well.
(3) Sample solution: An appropriate amount of sample solution was pipetted, diluted with methanol to about 0.5 mg/mL (determined by the concentration of each sample), and mixed well.

[5] = pH 4.5 buffer solution, pH 4.5, aqueous buffer

Structure (SMILES)	AUC0-last [2] [ng′ hours/mL]	solubility at 24 h [4, 5] [µg/mL]	solubility at 24 h ([4]; water) [µg/mL]	other results
CC(=O)[C@H]1CC[C@H]2[C@@H]3CC[C@H]4C[C@H](O)CC[C@]4(C)[C@H]3CC[C@]12C [Allopregnanolone, allopregnanolone, reference compound]	24.9	–	–	human plasma half-life period [1]: about 45 minutes
CC(=O)[C@H]1CCC2[C@@H]3CCC4CC(OC(=O)C(NC(=O)CN)C(C)C)CC[C@]4(C)C3CC[C@@]21C (stereo partly drawn) [Compound 2 hydrochloride]	196.0	> 10000	> 10000	Purity ([3]; 0 hour): 95.00%; Purity ([3]; 1 hour): 94.59%; Purity ([3]; 3 hours): 94.50%; Purity ([3]; 5 hours): 94.05%; Purity ([3]; 8 hours): 94.33%
CC(=O)[C@H]1CCC2[C@@H]3CCC4CC(OC(=O)C(NC(=O)C5CCCN5)C(C)C)CC[C@]4(C)C3CC[C@@]21C (stereo partly drawn) [Compound 4 hydrochloride]	–	–	190	–
CC(=O)[C@H]1CCC2[C@@H]3CCC4CC(OC(=O)C(NC(=O)C(N)Cc5c[nH]c6ccccc56)C(C)C)CC[C@]4(C)C3CC[C@@]21C (stereo partly drawn) [Compound 5 hydrochloride]	–	–	70	–
CC(=O)[C@H]1CC[C@H]2[C@@H]3CC[C@H]4C[C@H](OC(=O)[C@@H](NC(=O)C(C)N)C(C)C)CC[C@]4(C)[C@H]3CC[C@]12C (stereo partly drawn) [Compound 6 hydrochloride]	–	–	5680	–
CC(=O)[C@H]1CC[C@H]2[C@@H]3CC[C@H]4CC(OC(=O)C(NC(=O)C(N)CC(C)C)C(C)C)CC[C@]4(C)[C@H]3CC[C@]12C (stereo partly drawn) [Compound 7 hydrochloride]	–	–	7380	–
CC(=O)[C@H]1CC[C@H]2[C@@H]3CC[C@H]4C[C@H](OC(=O)[C@H](C)NC(=O)[C@@H](N)C(C)C)CC[C@]4(C)[C@H]3CC[C@]12C [Compound 10 hydrochloride]	–	–	–	Purity ([3]; 0 hour): 99.12%; Purity ([3]; 1 hour): 99.09%; Purity ([3]; 3 hours): 99.04%; Purity ([3]; 5 hours): 98.05%; Purity ([3]; 8 hours): 97.89%
CC(=O)[C@H]1CC[C@H]2[C@@H]3CC[C@H]4C[C@H](OC(=O)[C@H](C)NC(=O)CN)CC[C@]4(C)[C@H]3CC[C@]12C [Compound 12 hydrochloride]	–	1910	2620	–
CC(=O)[C@H]1CC[C@H]2[C@@H]3CC[C@H]4C[C@H](OC(=O)[C@H](C)OC(=O)[C@@H](N)C(C)C)CC[C@]4(C)[C@H]3CC[C@]12C [Compound 13 hydrochloride]	–	10	370	–
CC(=O)[C@H]1CC[C@H]2[C@@H]3CC[C@H]4C[C@H](OC(=O)CNC(=O)[C@@H](N)C(C)C)CC[C@]4(C)[C@H]3CC[C@]12C [Compound 14 hydrochloride]	150.2	> 50000	> 10000	–
CC(=O)[C@H]1CC[C@H]2[C@@H]3CC[C@H]4C[C@H](OC(=O)CNC(=O)CN)CC[C@]4(C)[C@H]3CC[C@]12C [Compound 15 hydrochloride]	166.3	–	1110	–
CC(=O)[C@H]1CC[C@H]2[C@@H]3CC[C@H]4C[C@H](OC(=O)CNC(=O)[C@H](C)N)CC[C@]4(C)[C@H]3CC[C@]12C [Compound 23 hydrochloride]	–	970	640	–
